Assay results taken from patent publication US8703811B2, “Small molecule inhibitors of Plasmodium falciparum dihydroorotate dehydrogenase” (Genzyme Corporation, priority 2008, dated 2014).

Key:
[1] = system: Normal Human Dermal Fibroblasts; assay: Normal Human Dermal Fibroblast Toxicity Screen; type: cell-based
Outline: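 Fibroblasts seeded at 0.25 to 0.3×10^5 cells/mL, allowed 24 h at 37° C./5% CO2, then exposed to compounds for 96 hours. Viability read as Alamar Blue fluorescence after 3 h, with a T=0 plate, Tween 20 as positive control and DMSO as negative control.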

pvDHODH = pvDHODH (Plasmodium vivax, UniProt A5K1N1); assay: DCIP assay, pvDHODH; type: biochemical, P. vivax; details: 200 μM L-DHO, 18 μM CoQD, 100 μM DCIP, 20 nM enzyme
Description: (§1) Type 2 DHODH activity was monitored with either the direct assay measuring the formation of orotate or via a chromogen reduction assay using DCIP. Although the extinction coefficient and absorption wavelength are preferable for the chromogen reduction assay, the inorganic electron acceptor DCIP can be utilized by DHODH as the final electron acceptor in lieu of CoQn when the endogenous substrate is at a low concentration. As such, the direct assay was used to measure the binding affinity of pfDHODH to CoQD and L-DHO. The enzymatic reaction was performed by varying the L-DHO concentration (1-400 μM) or CoQD concentration (1-200 μM) while keeping the other substrate constant and in excess. The formation of orotate was measured continuously at 296 nm (ε296=4.3 mM^−1 cm^−1). Inhibition of DHODH by small molecules was evaluated using the chromogen based assay with a final substrate concentration of 200 μM L-DHO, 18 μM CoQD, and 100 μM DCIP, unless otherwise noted. The reduction of DCIP was monitored at 600 nm (ε600=18.8 mM^−1 cm^−1).
(§2) Substrate specificity and enzyme inhibition data was analyzed with GraphPad Prism Version 4 for Windows (GraphPad Software). Kinetic constants were calculated by non-linear regression fitting of the data to the Michaelis-Menten equation [36]. IC50 values were determined by non-linear regression fitting of the data to Equation 1: […]

P. falciparum HB3 = assay: Inhibition of in vitro P. falciparum culture, [3H]-hypoxanthine uptake, HB3; type: cell-based; details: Plasmodium falciparum, HB3, Erythrocyte; [3H]-hypoxanthine uptake by parasite infected erythrocytes; read-out: HB3 IC50
Description: (§3) P. falciparum strains D10, 3D7, HB3, and Dd2 were obtained from the Malaria Research and Reference Reagent Resource Center (Manassas, Va.). The parasite strains were maintained in vitro by method of Trager and Jensen. The inhibition of P. falciparum growth in the presence of drug was assessed by the relative reduction of [^3H]-hypoxanthine uptake as previously described. Inhibition data were fitted to Equation 1 using non-linear regression analysis except that the relative velocity of parasite growth was substituted for the rate of product formation.

pfDHODH = pfDHODH (Plasmodium falciparum (isolate 3D7), UniProt Q08210); assay: pfDHODH activity with FeCy as electron acceptor; details: read-out: % Inhibition of Product Formation Rate with 50 μM Inhibitor, FeCy
Description: Inhibitors of DHODH, as classified by the chromogen reduction assay, were also evaluated for activity using FeCy as an electron acceptor. A final concentration of 5-50 nM DHODH, 200 μM L-DHO and 100 μM FeCy in Buffer C was used in this assay. Both the reduction of FeCy and the formation of orotate was monitored at 420 nm (ε420=1 mM^−1 cm^−1) and 290 nm (ε280=2 mM^−1 cm^−1), respectively, noting that two molecules of FeCy are reduced for one molecule of L-DHO. As with the previous assays, the reaction was performed at 25° C. and initiated with the addition of enzyme.

scDHODH = scDHODH (Saccharomyces cerevisiae (strain ATCC 204508 / S288c) (Baker's yeast), UniProt P28272); assay: DCIP assay with fumarate, scDHODH; type: biochemical; details: 115 μM fumarate in lieu of CoQD
[2] = system: P. falciparum D10-scDHODH; assay: Inhibition of transgenic D10-scDHODH parasites, [3H]-hypoxanthine uptake; type: cell-based
Description: as §3
Transgenic parasites expressing scDHODH were generated as described by Painter et al. except that full length scDHODH was cloned directly into the pGem3Z vector without a GFP tag. The resultant plasmid was transfected into ring stages of P. falciparum D10 by electroporation and maintained in culture using standard methods under the selection of WR99210.

pbDHODH = pbDHODH (Plasmodium berghei, UniProt A0A509AEH5); assay: DCIP assay, pbDHODH; type: biochemical, P. berghei; details: 200 μM L-DHO, 18 μM CoQD, 100 μM DCIP, 20 nM enzyme
Description: as §1, §2

P. falciparum D10 = assay: Inhibition of in vitro P. falciparum culture, [3H]-hypoxanthine uptake, D10; type: cell-based; details: Plasmodium falciparum, D10, Erythrocyte; [3H]-hypoxanthine uptake by parasite infected erythrocytes; read-out: D10 IC50
Description: as §3

pfDHODH, sequence (Q08210 159-565 limits assumed): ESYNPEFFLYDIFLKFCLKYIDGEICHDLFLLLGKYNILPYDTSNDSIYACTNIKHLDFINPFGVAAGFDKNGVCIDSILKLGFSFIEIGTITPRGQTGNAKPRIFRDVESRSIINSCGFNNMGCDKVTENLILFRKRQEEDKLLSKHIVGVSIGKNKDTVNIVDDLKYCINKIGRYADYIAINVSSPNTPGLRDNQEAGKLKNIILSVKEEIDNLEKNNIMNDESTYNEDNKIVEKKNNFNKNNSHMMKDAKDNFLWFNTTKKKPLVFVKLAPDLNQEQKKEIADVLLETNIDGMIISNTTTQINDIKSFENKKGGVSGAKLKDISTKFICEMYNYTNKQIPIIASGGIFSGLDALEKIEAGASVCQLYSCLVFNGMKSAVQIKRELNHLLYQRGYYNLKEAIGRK
pbDHODH, sequence (A0A509AEH5 1-517): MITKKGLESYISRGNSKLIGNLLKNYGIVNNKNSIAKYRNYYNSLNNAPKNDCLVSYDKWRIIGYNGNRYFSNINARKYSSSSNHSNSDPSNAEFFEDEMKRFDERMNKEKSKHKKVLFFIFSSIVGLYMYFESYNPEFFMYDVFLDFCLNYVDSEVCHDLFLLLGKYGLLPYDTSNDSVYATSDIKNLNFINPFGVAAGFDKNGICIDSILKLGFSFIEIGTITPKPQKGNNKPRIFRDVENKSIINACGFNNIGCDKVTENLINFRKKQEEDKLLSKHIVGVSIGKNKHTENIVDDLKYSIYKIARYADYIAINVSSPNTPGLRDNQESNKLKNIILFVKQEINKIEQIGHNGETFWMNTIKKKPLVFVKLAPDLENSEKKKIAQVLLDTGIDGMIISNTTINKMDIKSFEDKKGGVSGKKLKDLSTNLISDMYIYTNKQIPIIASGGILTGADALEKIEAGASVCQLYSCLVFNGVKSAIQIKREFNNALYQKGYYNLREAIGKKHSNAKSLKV
pvDHODH, sequence (A5K1N1 1-572): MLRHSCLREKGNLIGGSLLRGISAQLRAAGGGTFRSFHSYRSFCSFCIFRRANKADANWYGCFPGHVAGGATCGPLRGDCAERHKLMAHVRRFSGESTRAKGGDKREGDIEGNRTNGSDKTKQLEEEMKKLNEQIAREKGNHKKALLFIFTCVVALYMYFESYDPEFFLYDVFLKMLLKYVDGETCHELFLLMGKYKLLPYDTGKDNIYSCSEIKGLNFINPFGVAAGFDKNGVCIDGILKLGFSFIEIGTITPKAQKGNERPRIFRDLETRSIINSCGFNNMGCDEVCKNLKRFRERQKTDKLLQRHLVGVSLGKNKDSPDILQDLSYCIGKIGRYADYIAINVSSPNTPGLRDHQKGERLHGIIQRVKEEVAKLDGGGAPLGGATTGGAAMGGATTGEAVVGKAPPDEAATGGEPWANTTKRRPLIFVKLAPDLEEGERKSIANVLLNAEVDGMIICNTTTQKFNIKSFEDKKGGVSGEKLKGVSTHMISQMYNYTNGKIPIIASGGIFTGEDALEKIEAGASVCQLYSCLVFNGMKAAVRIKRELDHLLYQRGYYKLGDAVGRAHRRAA
scDHODH, sequence (P28272 whole entry): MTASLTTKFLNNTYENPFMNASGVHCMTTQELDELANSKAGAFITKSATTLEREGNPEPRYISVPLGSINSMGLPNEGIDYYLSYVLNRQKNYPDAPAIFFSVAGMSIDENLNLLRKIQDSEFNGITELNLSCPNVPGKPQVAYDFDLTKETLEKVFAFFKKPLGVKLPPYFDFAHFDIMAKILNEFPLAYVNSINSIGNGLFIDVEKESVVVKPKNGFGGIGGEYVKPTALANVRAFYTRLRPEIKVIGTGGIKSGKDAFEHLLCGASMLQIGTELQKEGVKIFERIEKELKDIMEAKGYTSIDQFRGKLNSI

## 5-(1H-indol-1-yl)-N-propylthiophene-2-carboxamide [Compound 7]
[1]; four days exposure, Alamar Blue, read-out: Dermal Fibroblast LC50
  CC50: 50 µM

## CCCNC(=O)c1ccc(-n2c(C)cc3ccccc32)s1 [Compound 1, 5-(2-methyl-1H-indol-1-yl)-N-propylthiophene-2-carboxamide]
pvDHODH
  IC50: 0.42 ± 0.02 µM
P. falciparum HB3
  IC50: 0.47 µM
pfDHODH
  inhibition at 50 µM: 31%
scDHODH
  IC50: > 10 µM
[2]; Plasmodium falciparum, D10, read-out: D10-scDHODH IC50
  IC50: > 10 µM
[2]; dose-effect curves, FIG. 5
  efficacy against D10-scDHODH strain compared to D10 parent strain: significantly reduced
pbDHODH
  IC50: 0.06 ± 0.007 µM
P. falciparum D10
  IC50: 0.61 µM

## CCCNC(=O)c1ccc(-n2c(C)nc3ccccc32)s1 [Compound 12, 5-(2-methyl-1H-benzo[d]imidazol-1-yl)-N-propylthiophene-2-carboxamide]
[1]
  cytotoxicity in dermal fibroblasts: No adverse cytotoxicity
